Data as given in patent US9193720B2, “Pyridin-3-yl acetic acid derivatives as inhibitors of human immunodeficiency virus replication” (priority 2014, dated 2015).

These compounds were tested on NL-RLuc virus (assay: Inhibition of HIV Replication (NL-RLuc luciferase reporter virus in MT-2 cells)). Conditions: Human immunodeficiency virus 1, MT2, 120 h.
Type: cell-based
Source text: Inhibition of HIV Replication:
A recombinant NL-RLuc proviral clone was constructed in which a section of the nef gene from NL4-3 was replaced with the Renilla Luciferase gene. This virus is fully infectious and can undergo multiple cycles of replication in cell culture. In addition, the luciferous reporter provides a simple and easy method for quantitating the extent of virus growth and consequently, the antiviral activity of test compounds. The plasmid pNLRLuc contains the proviral NL-Rluc DNA cloned into pUC18 at the PvuII site. The NL-RLuc virus was prepared by transfection of 293T cells with the plasmid pNLRLuc. Transfections were performed using the LipofectAMINE PLUS kit from Invitrogen (Carlsbad, Calif.) according to the manufacturer and the virus generated was titered in MT-2 cells. For susceptibility analyses, the titrated virus was used to infect MT-2 cells in the presence of compound, and after 5 days of incubation, cells were processed and quantitated for virus growth by the amount of expressed luciferase. Assay media was RPMI 1640 supplemented with 10% heat inactivated fetal bovine serum (FBS), 100 units/ml penicillin G/100 units/ml streptomycin, 10 mM HEPES buffer pH 7.55 and 2 mM L-glutamine. The results from at least 2 experiments were used to calculate the EC50 values. Luciferase was quantitated using the Dual Luciferase kit from Promega (Madison, Wis.). Susceptibility of viruses to compounds was determined by incubation in the presence of serial dilutions of the compound. The 50% effective concentration (EC50) was calculated by using the exponential form of the median effect equation where (Fa)=1/[1+(ED50/drug conc.)^m] (Johnson V A, Byington R T. Infectivity Assay. In Techniques in HIV Research. ed. Aldovini A, Walker B D. 71-76. New York: Stockton Press. 1990).

| Compound | EC50 [nM] |
| --- | --- |
| Cc1nc(C)c([C@H](OC(C)(C)C)C(=O)O)c(N2CCC(C)(C)CC2)c1-c1ccc(OCc2cnc(Cl)s2)cc1 [Example 47, (S)-2-(tert-butoxy)-2-(5-(4-((2-chlorothiazol-5-yl)methoxy)phenyl)-4-(4,4-dimethylpiperidin-1-yl)-2,6-dimethylpyridin-3-yl)acetic acid] | 18 |
| Cc1nc(C)c(CCOc2ccc(-c3c(C)nc(C)c([C@H](OC(C)(C)C)C(=O)O)c3N3CCC(C)(C)CC3)cc2)s1 [Example 48, (S)-2-(tert-butoxy)-2-(4-(4,4-dimethylpiperidin-1-yl)-5-(4-(2-(2,4-dimethylthiazol-5-yl)ethoxy)phenyl)-2,6-dimethylpyridin-3-yl)acetic acid] | 1 |
| Cc1nc(C)c([C@H](OC(C)(C)C)C(=O)O)c(N2CCC(C)(C)CC2)c1-c1ccc(OCC(C)(C)c2ccc(F)cc2)cc1 [Example 49, (S)-2-(tert-butoxy)-2-(4-(4,4-dimethylpiperidin-1-yl)-5-(4-(2-(4-fluorophenyl)-2-methylpropoxy)phenyl)-2,6-dimethylpyridin-3-yl)acetic acid] | 34 |
| Cc1nc(C)c([C@H](OC(C)(C)C)C(=O)O)c(N2CCC(C)(C)CC2)c1-c1ccc(OCCc2cc(F)c(F)cc2F)cc1 [Example 50, (S)-2-(tert-butoxy)-2-(4-(4,4-dimethylpiperidin-1-yl)-2,6-dimethyl-5-(4-(2,4,5-trifluorophenethoxy)phenyl)pyridin-3-yl)acetic acid] | 3 |
| Cc1nc(C)c([C@H](OC(C)(C)C)C(=O)O)c(N2CCC(C)(C)CC2)c1-c1ccc(OCCc2c(F)c(F)cc(F)c2F)cc1 [Example 51, (S)-2-(tert-butoxy)-2-(4-(4,4-dimethylpiperidin-1-yl)-2,6-dimethyl-5-(4-(2,3,5,6-tetrafluorophenethoxy)phenyl)pyridin-3-yl)acetic acid] | 6 |
| Cc1ccc(CCOc2ccc(-c3c(C)nc(C)c([C@H](OC(C)(C)C)C(=O)O)c3N3CCC(C)(C)CC3)cc2)s1 [Example 52, (S)-2-(tert-butoxy)-2-(4-(4,4-dimethylpiperidin-1-yl)-2,6-dimethyl-5-(4-(2-(5-methylthiophen-2-yl)ethoxy)phenyl)pyridin-3-yl)acetic acid] | 5 |
| Cc1noc(C)c1CCOc1ccc(-c2c(C)nc(C)c([C@H](OC(C)(C)C)C(=O)O)c2N2CCC(C)(C)CC2)cc1 [Example 53, (S)-2-(tert-butoxy)-2-(5-(4-(2-(3,5-dimethylisoxazol-4-yl)ethoxy)phenyl)-4-(4,4-dimethylpiperidin-1-yl)-2,6-dimethylpyridin-3-yl)acetic acid] | 2 |
| Cc1n[nH]c(C)c1CCOc1ccc(-c2c(C)nc(C)c([C@H](OC(C)(C)C)C(=O)O)c2N2CCC(C)(C)CC2)cc1 [Example 54, (S)-2-(tert-butoxy)-2-(5-(4-(2-(3,5-dimethyl-1H-pyrazol-4-yl)ethoxy)phenyl)-4-(4,4-dimethylpiperidin-1-yl)-2,6-dimethylpyridin-3-yl)acetic acid] | 8 |
| Cc1ccc(-c2c(C)nc(C)c([C@H](OC(C)(C)C)C(=O)O)c2N2CCC(C)(C)CC2)cc1OCc1ccccc1 [Example 55, (S)-2-(5-(3-(benzyloxy)-4-methylphenyl)-4-(4,4-dimethylpiperidin-1-yl)-2,6-dimethylpyridin-3-yl)-2-(tert-butoxy)acetic acid] | 93 |
| Cc1nc(C)c([C@H](OC(C)(C)C)C(=O)O)c(N2CCC(C)(C)CC2)c1-c1ccc(OCc2ccncc2)cc1 [Example 56, (S)-2-(tert-butoxy)-2-(4-(4,4-dimethylpiperidin-1-yl)-2,6-dimethyl-5-(4-(pyridin-4-ylmethoxy)phenyl)pyridin-3-yl)acetic acid] | 2 |
| COc1ncc(-c2c(C)nc(C)c([C@H](OC(C)(C)C)C(=O)O)c2N2CCC(C)(C)CC2)cn1 [Example 57, (S)-2-(tert-butoxy)-2-(4-(4,4-dimethylpiperidin-1-yl)-5-(2-methoxypyrimidin-5-yl)-2,6-dimethylpyridin-3-yl)acetic acid] | 217 |
| Cc1nc(C)c([C@H](OC(C)(C)C)C(=O)O)c(N2CCC(C)(C)CC2)c1-c1cnc(OCCc2ccc(F)cc2)nc1 [Example 58, (S)-2-(tert-butoxy)-2-(4-(4,4-dimethylpiperidin-1-yl)-5-(2-(4-fluoro-phenethoxy)pyrimidin-5-yl)-2,6-dimethylpyridin-3-yl)acetic acid] | 9 |
| CCCOc1ccc(-c2c(C)nc(C)c([C@H](OC(C)(C)C)C(=O)O)c2N2CCC(C)(C)CC2)cc1F [Example 59, (S)-2-(tert-butoxy)-2-(4-(4,4-dimethylpiperidin-1-yl)-5-(3-fluoro-4-propoxyphenyl)-2,6-dimethylpyridin-3-yl)acetic acid] | 21 |
| COc1cc(-c2c(C)nc(C)c([C@H](OC(C)(C)C)C(=O)O)c2N2CCC(C)(C)CC2)cc(OC)c1OC [Example 60, (S)-2-(tert-butoxy)-2-(4-(4,4-dimethylpiperidin-1-yl)-2,6-dimethyl-5-(3,4,5-trimethoxyphenyl)pyridin-3-yl)acetic acid] | 262 |
| COc1cc(-c2c(C)nc(C)c([C@H](OC(C)(C)C)C(=O)O)c2N2CCC(C)(C)CC2)ccc1C [Example 61, (S)-2-(tert-butoxy)-2-(4-(4,4-dimethylpiperidin-1-yl)-5-(3-methoxy-4-methylphenyl)-2,6-dimethylpyridin-3-yl)acetic acid] | 44 |
| COc1cccc(-c2c(C)nc(C)c([C@H](OC(C)(C)C)C(=O)O)c2N2CCC(C)(C)CC2)c1 [Example 62, (S)-2-(tert-butoxy)-2-(4-(4,4-dimethylpiperidin-1-yl)-5-(3-methoxyphenyl)-2,6-dimethylpyridin-3-yl)acetic acid] | 166 |
| Cc1nc(C)c([C@H](OC(C)(C)C)C(=O)O)c(N2CCC(C)(C)CC2)c1-c1ccc(OC(C)C)c(Cl)c1 [Example 63, (S)-2-(tert-butoxy)-2-(5-(3-chloro-4-isopropoxyphenyl)-4-(4,4-dimethylpiperidin-1-yl)-2,6-dimethylpyridin-3-yl)acetic acid] | 119 |
| CCCOc1c(C)cc(-c2c(C)nc(C)c([C@H](OC(C)(C)C)C(=O)O)c2N2CCC(C)(C)CC2)cc1C [Example 64, (S)-2-(tert-butoxy)-2-(5-(3,5-dimethyl-4-propoxyphenyl)-4-(4,4-dimethylpiperidin-1-yl)-2,6-dimethylpyridin-3-yl)acetic acid] | 26 |
| CCOc1ccc(-c2c(C)nc(C)c([C@H](OC(C)(C)C)C(=O)O)c2N2CCC(C)(C)CC2)cc1F [Example 65, (S)-2-(tert-butoxy)-2-(4-(4,4-dimethylpiperidin-1-yl)-5-(4-ethoxy-3-fluorophenyl)-2,6-dimethylpyridin-3-yl)acetic acid] | 44 |
| COc1cc(-c2c(C)nc(C)c([C@H](OC(C)(C)C)C(=O)O)c2N2CCC(C)(C)CC2)ccc1F [Example 66, (S)-2-(tert-butoxy)-2-(4-(4,4-dimethylpiperidin-1-yl)-5-(4-fluoro-3-methoxyphenyl)-2,6-dimethylpyridin-3-yl)acetic acid] | 141 |
| Cc1nc(C)c([C@H](OC(C)(C)C)C(=O)O)c(N2CCC(C)(C)CC2)c1-c1ccc(OCCc2ccc(F)cc2)nc1 [Example 67, (S)-2-(tert-butoxy)-2-(4-(4,4-dimethylpiperidin-1-yl)-6′-(4-fluorophenethoxy)-2,6-dimethyl-[3,3′-bipyridin]-5-yl)acetic acid] | 7 |
| Cc1nc(C)c([C@H](OC(C)(C)C)C(=O)O)c(N2CCC(C3CC3)C2)c1-c1ccc(OCCc2ccc(F)cc2)cc1 (stereo partly drawn) [Example 68, (2S)-2-(tert-butoxy)-2-(4-(3-cyclopropylpyrrolidin-1-yl)-5-(4-(4-fluorophenethoxy)phenyl)-2,6-dimethylpyridin-3-yl)acetic acid] | 42 |
| Cc1nc(C)c([C@H](OC(C)(C)C)C(=O)O)c(N2CC(F)(F)C2)c1-c1ccc(OCCc2ccc(F)cc2)cc1 [Example 69, (S)-2-(tert-butoxy)-2-(4-(3,3-difluoroazetidin-1-yl)-5-(4-(4-fluorophenethoxy)phenyl)-2,6-dimethylpyridin-3-yl)acetic acid] | 1990 |
| Cc1nc(C)c([C@H](OC(C)(C)C)C(=O)O)c(N2CC(C)(C)C2)c1-c1ccc(OCCc2ccc(F)cc2)cc1 [Example 70, (S)-2-(tert-butoxy)-2-(4-(3,3-dimethylazetidin-1-yl)-5-(4-(4-fluorophenethoxy)phenyl)-2,6-dimethylpyridin-3-yl)acetic acid] | 3050 |
| Cc1nc(C)c([C@H](OC(C)(C)C)C(=O)O)c(N2CC(C(C)C)C2)c1-c1ccc(OCCc2ccc(F)cc2)cc1 [Example 71, (S)-2-(tert-butoxy)-2-(5-(4-(4-fluoro-phenethoxy)phenyl)-4-(3-isopropylazetidin-1-yl)-2,6-dimethylpyridin-3-yl)acetic acid] | 3190 |
| Cc1nc(C)c([C@H](OC(C)(C)C)C(=O)O)c(N2CCC(c3ccccc3)CC2)c1-c1ccc(OCCc2ccc(F)cc2)cc1 [Example 72, (S)-2-(tert-butoxy)-2-(5-(4-(4-fluorophenethoxy)phenyl)-2,6-dimethyl-4-(4-phenylpiperidin-1-yl)pyridin-3-yl)acetic acid] | 744 |
